# Measured values taken from patent US20260335282A1, “NOVEL 3-ARYLIDENE-2-INDOLINONE DERIVATIVES FOR THERAPEUTIC USE” (ISTANBUL UNIVERSITESI REKTORLUGU, priority 2022, published 2026).
# pIC50: −log10 of the molar value.
# Tests used:
# [1] = test system: A549 cells; assay: MTT cytotoxicity, lung cancer cells A549; assay type: cell-based, human; details: no * mark (incubation time not specified)
# Method in brief: (§1)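 Healthy HUVEC cells grew in DMEM, cancer lines in RPMI-1640 or DMEM with 10% FBS. After overnight attachment, compounds (0.1, 1, 5, 10 μM) act for 48 and/or 72 h before a 4 h MTT step and 570/630 nm reading; IC50 is taken from dose-response curves.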
# [2] = test system: CAKI-1 cells; assay: MTT cytotoxicity, kidney cancer cells CAKI-1; assay type: cell-based, human; details: no * mark (incubation time not specified)
# Method in brief: as §1
# [3] = test system: HUVEC cells; assay: MTT cytotoxicity, healthy cells HUVEC; assay type: cell-based, human
# Method in brief: as §1
# [4] = test system: MCF-7 cells; assay: MTT cytotoxicity, breast cancer cells MCF-7; assay type: cell-based, human; details: MTT, no * mark (incubation time not specified)
# Method in brief: as §1
# [5] = test system: MCF-10F/Beas2b cells; assay: MTT cytotoxicity, healthy cells MCF-10F/Beas2b; assay type: cell-based, human; details: MCF-10F/Beas2b vs colon or pancreas cancer cells; cancer line not given
# Method in brief: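 Viability was quantified by MTT reduction following 48 and/or 72 h compound exposure at four concentrations (0.1, 1, 5, 10 μM). Values are percentages of DMSO-treated controls, with IC50 fitted from dose-response data.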
# [6] = test system: HT-29 cells; assay: MTT cytotoxicity, colon cancer cells HT-29; assay type: cell-based, human
# Method in brief: (§2)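 Cells were seeded at 5000 per well and treated next day with compound at 0.1, 1, 5 and 10 μM (final) for 48 and/or 72 h, with matched DMSO controls. MTT was added for 4 h and formazan was dissolved in DMSO and read at 570/630 nm. % viability against control gave IC50 from dose-response curves.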
# [7] = test system: HCT-116 cells; assay: MTT cytotoxicity, colon cancer cells HCT-116; assay type: cell-based, human; details: no * mark (incubation time not specified)
# Method in brief: as §2
# [8] = test system: A498 cells; assay: MTT cytotoxicity, kidney cancer cells A498; assay type: cell-based, human; details: MTT, no * mark (incubation time not specified)
# Method in brief: as §1
# [9] = test system: MIAPaCa-2 cells; assay: MTT cytotoxicity, pancreas cancer cells MIAPaCa-2; assay type: cell-based, human; details: MTT, no * mark (incubation time not specified)
# Method in brief: as §2
# [10] = test system: human cancer cells; assay: MTT cell viability, human cancer cells overall; assay type: cell-based; details: cell line as discussed at the place
# Source text: The cytotoxicity, general tyrosine kinase inhibitory effects and cell death (apoptosis/necrosis) assays of 1-benzyl-3-(1H-indol-3-ylmethylidene)-1,3-dihydro-2H-indol-2-one derivatives (Formula 5) of the present invention are studied by the following methods. […] HUVEC (human umbilical vein endothelial cell), MCF-10F (human breast epithelial cell) and Beas2b (human lung bronchial epithelial cell) cell lines have been used as healthy control cells in MTT experiments.
# Beas2b (human lung bronchiole epithelial cell) and HEK293 (renal tubule epithelium) cells used as normal cell lines were cultured in RPMI medium, and HUVEC (human umbilical cord endothelial cells) and MCF-10F (human breast epithelial cell) cells are cultured in DMEM medium containing 100 µg/ml penicillin/streptomycin. The cells, which covered 70% of the culture flask, are washed with phosphate buffer and then removed from the surface of the flask by application of trypsin-ethylenediamine tetraacetic acid (Trypsin-EDTA; 0.25%) solution, passaged, counted and seeded on appropriate plates before each experiment. Cells are treated with a total of 45 2-indolinone compounds (5) at concentrations of 0.1, 1, 5 and 10 μM. Stock compounds are prepared in 1 ml dimethylsulfoxide (DMSO) and 4 different dilutions were prepared with medium and performed to the cells. Control group cells are treated with DMSO at a similar concentration to the experimental groups.
# MTT (3-(4,5-dimethylthiazol-2-yl)-2,5-diphenyl-2H-tetrazolium bromide) colorimetric assay provides quantitation of viable cells with ongoing mitochondrial activity in culture medium. According to the standard procedure in cell culture conditions, cells are maintained in RPMI-1640 and DMEM culture media containing 10% FBS and 1% penicillin/streptomycin. The trypan blue test is used for cell counts.
# The effects of 45 2-indolinone compounds (5) on cell viability in all cancer cell lines are investigated by MTT assay. Cells are seeded in a 96-well flat bottom plate with 5000 cells in each well and 2-indolinone compounds (5) at concentrations of 0.1, 1, 5 and 10 μM are performed to the cells the next day. After 48 and/or 72 hours following treatment with 2-indolinone compounds, 50 μl of the supernatant is slowly discarded (as it was acid medium) and MTT at a concentration of 5 mg/ml is added to each well in a volume of 10 μl. After incubation for 4 hours, the formazan crystals formed in the wells are dissolved by adding 100 μl DMSO and the optical density is read at 570 nm test wavelength and 630 nm reference wavelength. Cell viability is expressed as % cell viability by comparing the absorbance of control and test wells. IC50 value is calculated from the dose-response curves prepared for each compound. In addition, the possible DMSO effect is eliminated by preparing negative control wells compatible with the amount of DMSO contained in the compounds. To understand the reaction of the compounds with MTT, cell-free (MTT+compounds) negative controls are prepared at the concentrations used (Mosmann, 1983). […] The absorbance values obtained are compared to the control and statistically evaluated by unpaired t-test using “Graphpad Prism 5.04” software. “P<0.05” is accepted as significant. When evaluating cytotoxic effects, the present inventors aim for the inventive compounds to be effective in cancer cells and ineffective in healthy cells. […]
# [11] = test system: MDA-MB-231 cells; assay: MTT cytotoxicity, breast cancer cells MDA-MB-231; assay type: cell-based, human; details: read-out: IC50, MDA-MB-231 (breast); MTT, no * mark (incubation time not given)
# Method in brief: as §1
# [12] = test system: FGFR1; details: Liang et al. 2012; cited from earlier work
# [13] = test system: primary tumor; details: combination with docetaxel, Patyna et al. 2006; cited from earlier work
# [14] = test system: BL6-B16 melanoma and E0771 breast cancer cells; details: Morigi et al. 2019; cited from earlier work
# [15] = MTT, no * mark (incubation time not specified)
compound,measurement,setting,value
O=C1/C(=C\c2c[nH]c3ccccc23)c2ccccc2N1Cc1cccc(F)c1 [51C],pIC50,[1],< 5.00
same,pIC50,[2],< 5.00
same,"Selectivite Index, HUVEC (Table 2)","[3]; HUVEC vs colon or pancreas cancer cells, cancer line not given",6.13
same,pIC50,[3]; [15],5.24
same,pIC50,[4],< 5.00
same,"Selectivite Index, MCF-10F/Beas2b (Table 2)",[5],> 10.75
same,selectivity index,[6]; MCF-10F/Beas2b vs HT-29,> 11
same,pIC50,[6]; [15],6.03
same,pIC50,[7],5.95
same,pIC50,[8],5.21
same,pIC50,[9],5.28
same,potency/selectivity compared with sunitinib malate,[10],more potent and selective than Sunitinib malate
same,pIC50,[11],< 5.00
"Cc1c[nH]c(/C=C2\C(=O)Nc3ccccc32)c1CCC(=O)O [SU5402, 3-[4-methyl-2-[(Z)-(2-oxo-1H-indol-3-ylidene)methyl]-1H-pyrrol-3-yl]propanoic acid]",inhibitory activity against FGFR1 vs SU4984,[12],better inhibitory activity against FGFR1 than SU4984
Cc1[nH]c(/C=C2\C(=O)Nc3ccc(F)cc32)c(C)c1C(=O)NCC(O)CN1CCOCC1 (stereo not shown) [SU14813],inhibition of primary tumor growth and survival,[13],significantly improve both inhibition of primary tumor growth and survival of tumor-bearing mice
O=C1Nc2ccccc2/C1=C/c1nc2sccn2c1-c1ccncc1 [I],tumor volume,[14],reduction in tumor volume
